Source: US20260317340A1, “COMPOUNDS, COMPOSITIONS, AND METHODS OF TREATING DISORDERS” (Chengdu Anticancer Bioscience, Ltd., priority 2023, published 2026)
Where two headings read alike, the source gives them in different places.

Legend:
RPE-Neo or RPE-MYC cells = test: MTT assay of cellular proliferation (proliferative arrest); format: cell-based; settings: for minimal effective concentration: read-out: Min. Effective conc. for Proliferative arrest (>50%)
Experimental: (§1) Human cancer cell lines were obtained from ATCC and cultured in DMEM (Gibco, Cleveland, TN, USA) supplemented with 5% fetal bovine serum (Gibco), penicillin (100 U/mL)-streptomycin (100 μg/mL) (Gibco, Cat. No. 15140-122), 2 mM L-glutamine (Gibco, 200 mM solution, Cat. No. 25030081), and 1 mM sodium pyruvate (Gibco, 100 mM solution, Cat. No. 11360070) at 37° C. in a humidified incubator that was maintained at 5% CO2.
Screening was conducted as described before (Li et al. 2019). Briefly, RPE-Neo or RPE-MYC or RPE-MYC expressing an EGFP-Histone 2B fusion protein were passaged as batches of 96-well plates, 18-24 hours before exposure to the chemical compounds of the present disclosure at concentrations from 20 nM to 20 μM. At 24, 48 or 72 hours after initiation of treatment, cells were analyzed for either an arrest in mitosis or a change in DNA content by GE IN-Cell Analyzer 2000. MTT assays of cellular proliferation were performed as previously described (Li et al. 2019). […]
(§2) As set forth in table 2 below, an values of greater than or equal to 1 nM and less than or equal to 1.0 μM is marked “A”; a value greater than 1.00 μM and less than or equal to 10.0 μM is marked “B”; a value greater than 10.0 μM and less than or equal to 30.0 μM is marked “C”; and a value greater than 30.0 μM and less than 1000 μM is marked “D.”

[1] = test system: RPE-Neo or RPE-MYC or RPE-MYC expressing an EGFP-Histone 2B fusion protein; test: Phenotypic screening assay: arrest in mitosis, change in DNA content (polyploidy), cell death; format: cell-based; settings: 20 nM to 20 μM, 24, 48 or 72 hours
Experimental: as §1
Screening was conducted as described before (Li et al. 2019). Briefly, RPE-Neo or RPE-MYC or RPE-MYC expressing an EGFP-Histone 2B fusion protein were passaged as batches of 96-well plates, 18-24 hours before exposure to the chemical compounds of the present disclosure at concentrations from 20 nM to 20 μM. At 24, 48 or 72 hours after initiation of treatment, cells were analyzed for either an arrest in mitosis or a change in DNA content by GE IN-Cell Analyzer 2000. MTT assays of cellular proliferation were performed as previously described (Li et al. 2019).
as §2

[2] = read-out: Min. Effective conc. for Along with Cell Death
[3] = ≥5%, read-out: Min. Effective conc. for Mitotic Arrest (≥5%)
[4] = ≥5%, read-out: Min. Effective conc. for Polyploidy (≥5%)

| Compound | minimal effective concentration (RPE-Neo or RPE-MYC cells) [µM] | minimal effective concentration [1, 2] [µM] | minimal effective concentration [1, 3] [µM] | minimal effective concentration [1, 4] [µM] | Min. Effective conc. for Proliferative arrest (>50%) (RPE-Neo or RPE-MYC cells; >50%) | Min. Effective conc. for Along with Cell Death [1] | Min. Effective conc. for Mitotic Arrest (≥5%) ([1]; ≥5%) | Min. Effective conc. for Polyploidy (≥5%) ([1]; ≥5%) |
| --- | --- | --- | --- | --- | --- | --- | --- | --- |
| Cc1ccc(CN2C(=O)CC(c3nnc(C4CC4)o3)=C(Br)c3scc(C)c32)cc1F [Compound 1, 8-Bromo-7-(5-cyclopropyl-1,3,4-oxadiazol-2-yl)-4-(3-fluoro-4-methylbenzyl)-3-methyl-4,6-dihydro-5H-thieno[3,2-b]azepin-5-one] | 0.001 to 1 | 0.001 to 1 | 0.001 to 1 | 0.001 to 1 |  |  |  |  |
| Cc1ccc(CN2C(=O)CC(c3nnc(C4CC4)o3)=C(Br)c3ccc(OCCOCCOCCOCCOc4ccc5c(c4)N(Cc4ccc(C)c(F)c4)C(=O)CC(c4nnc(C6CC6)o4)=C5Br)cc32)cc1F [Compound 2, 8,8′-((((Oxybis(ethane-2,1-diyl))bis(oxy))bis(ethane-2,1-diyl))bis(oxy))bis(5-bromo-4-(5-cyclopropyl-1,3,4-oxadiazol-2-yl)-1-(3-fluoro-4-methylbenzyl)-1,3-dihydro-2H-benzo[b]azepin-2-one)] | 1 to 10 | 1 to 10 | 1 to 10 | 1 to 10 |  |  |  |  |
| Cc1ccc(CN2C(=O)CC(c3nnc(C4CC4)o3)=C(Br)c3ccc(OCCOCCOCCOc4ccc5c(c4)N(Cc4ccc(C)c(F)c4)C(=O)CC(c4nnc(C6CC6)o4)=C5Br)cc32)cc1F [Compound 3, 8,8′-(((Ethane-1,2-diylbis(oxy))bis(ethane-2,1-diyl))bis(oxy))bis(5-bromo-4-(5-cyclopropyl-1,3,4-oxadiazol-2-yl)-1-(3-fluoro-4-methylbenzyl)-1,3-dihydro-2H-benzo[b]azepin-2-one)] | 1 to 10 | 1 to 10 | 1 to 10 | 1 to 10 |  |  |  |  |
| COc1ccc(CN2C(=O)CC(c3nnc(C4CC4)o3)=C(Br)c3cccc(F)c32)cc1 [Compound 4, 5-bromo-4-(5-cyclopropyl-1,3,4-oxadiazol-2-yl)-9-fluoro-1-(4-methoxybenzyl)-1,3-dihydro-2H-benzo[b]azepin-2-one] | 0.001 to 1 | 0.001 to 1 | 0.001 to 1 | 0.001 to 1 |  |  |  |  |
| COc1ccc(CN2C(=O)CC(c3nnc(C4CC4)o3)=C(Br)c3ccccc32)c(F)c1 [Compound 5, 5-Bromo-4-(5-cyclopropyl-1,3,4-oxadiazol-2-yl)-1-(2-fluoro-4-methoxybenzyl)-1,3-dihydro-2H-benzo[b]azepin-2-one] | 0.001 to 1 | 0.001 to 1 | 0.001 to 1 | 0.001 to 1 |  |  |  |  |
| CCc1ccc(CN2C(=O)CC(c3nnc(C4CC4)o3)=C(Br)c3ccccc32)cc1 [Compound 6, 5-Bromo-4-(5-cyclopropyl-1,3,4-oxadiazol-2-yl)-1-(4-ethylbenzyl)-1,3-dihydro-2H-benzo[b]azepin-2-one] | 0.001 to 1 | 0.001 to 1 | 0.001 to 1 | 0.001 to 1 |  |  |  |  |
| COc1ccc(CN2C(=O)CC(c3cnco3)=C(Br)c3ccccc32)cc1 [Compound 7, 5-Bromo-1-(4-methoxybenzyl)-4-(oxazol-5-yl)-1,3-dihydro-21-benzo[b]azepin-2-one] |  |  |  |  | A (greater than or equal to 1 nM and less than or equal to 1.0 μM) | A (greater than or equal to 1 nM and less than or equal to 1.0 μM) | A (greater than or equal to 1 nM and less than or equal to 1.0 μM) | A (greater than or equal to 1 nM and less than or equal to 1.0 μM) |
| COc1ccc(CN2C(=O)CC(c3ccon3)=C(Br)c3ccccc32)cc1 [Compound 8, 5-Bromo-4-(isoxazol-3-yl)-1-(4-methoxybenzyl)-1,3-dihydro-2H-benzo[b]azepin-2-one] | 0.001 to 1 | 0.001 to 1 | 0.001 to 1 | 0.001 to 1 |  |  |  |  |
